Results as given in patent publication US20250115620A1, “BRIDGED TRICYCLIC CARBAMOYLPYRIDONE COMPOUNDS AND USES THEREOF” (Gilead Sciences, Inc., priority 2022, published 2025).
pEC50: −log10 of the molar value. Where two headings read alike, the source gives them in different places.

What was measured:
in vitro = conditions: human; for CC50 at 5 days: uninfected MT-4 cells
HIV-1 (IIIB) = test: microbe, parasite or virus in culture; assay type: cell-based; conditions: Human immunodeficiency virus 1, IIIB, MT4, 120 h, read-out: MT4 EC50
Method: Compounds were tested in a high-throughput 384-well assay format for their ability to inhibit the replication of HIV-1 (IIIB) in MT-4 cells. Compounds were serially diluted (1:3) in DMSO on 384-well polypropylene plates and further diluted 200-fold into complete RPMI media (10% FBS, 1% P/S) using the Biotek Micro Flow and Labcyte ECHO acoustic dispenser. Each plate contained up to 8 test compounds, with negative (No Drug Control) and 5 μM AZT positive controls. MT-4 cells were pre-infected with 10 μL of either RPMI (mock-infected) or a fresh 1:250 dilution of HIV-1 IIIB concentrated virus stock. Infected and uninfected MT-4 cells were further diluted in complete RPMI media and added to each plate using a Micro Flow dispenser. After 5 days incubation in a humidified and temperature controlled incubator (37° C.), Cell Titer Glo (Promega) was added to the assay plates and chemiluminescence read using an Envision plate-reader.

pLAI reporter virus = test: microbe, parasite or virus in culture; assay type: cell-based, HIV; conditions: Human immunodeficiency virus 1, MT4, 72 h
[1] = HIV-1 (IIIB) in MT-4 cells, 5 days incubation, Cell Titer Glo

| Compound | CC50 at 5 days (in vitro) | pEC50 (HIV-1 (IIIB); [1]) | pEC50 (pLAI reporter virus; read-out: RLUC 50% HS EC50) | pEC50 (pLAI reporter virus; read-out: RLUC CCM EC50) | CC50 (in vitro) | pEC50 (HIV-1 (IIIB)) |
| --- | --- | --- | --- | --- | --- | --- |
| CC1=NCC2(CC[C@H](C)N3C[C@H]2n2cc(C(=O)NCc4ccc(F)cc4F)c(=O)c(O)c2C3=O)O1 (stereo partly drawn) [Example 56, (3′S,7′R)—N-(2,4-difluorobenzyl)-12′-hydroxy-2,3′-dimethyl-1′,11′-dioxo-1′,4′,5′,11′-tetrahydro-3′H,4H,7′H-spiro[oxazole-5,6′-[2,7]methanopyrido[1,2-a][1,4]diazonine]-10′-carboxamide] | ≥ 50 µM | 8.21 | 8.30 | 8.47 | – | – |
| C[C@H]1CC[C@@]2(CNC(=O)C2)[C@H]2CN1C(=O)c1c(O)c(=O)c(C(=O)NCc3c(F)cc(F)cc3F)cn12 [Example 57, (3R,3′S, 7′S)-12′-hydroxy-3′-methyl-1′,5,11′-trioxo-N-(2,4,6-trifluorobenzyl)-1′,4′,5′,11′-tetrahydro-3′H, 7′H-spiro[pyrrolidine-3,6′-[2,7]methanopyrido[ ],2-a][1,4]diazonine-10′-carboxamide] | – | – | 8.22 | 7.86 | ≥ 50 µM | 7.55 |
| C[C@H]1CC[C@@]2(CN(C)C(=O)O2)[C@H]2CN1C(=O)c1c(O)c(=O)c(C(=O)NCc3c(F)cc(F)cc3F)cn12 [Example 60, (3′S,5R,7′R)-12′-hydroxy-3,3′-dimethyl-1′,2,11′-trioxo-N-(2,4,6-trifluorobenzyl)-1′,4′,5′,11′-tetrahydro-3′H,7′H-spiro[oxazolidine-5,6′-[2,7]methanopyrido[1,2-a][1,4]diazonine]-10′-carboxamide] | ≥ 50 µM | 7.10 | 7.51 | 7.60 | – | – |
| C[C@H]1CC[C@]2(CC(=O)N(C)C2)[C@H]2CN1C(=O)c1c(O)c(=O)c(C(=O)NCc3c(F)cc(F)cc3F)cn12 [Example 61, (3R,3′S,7′S)-12′-hydroxy-1,3′-dimethyl-1′,5,11′-trioxo-N-(2,4,6-trifluorobenzyl)-1′,4′,5′,11′-tetrahydro-3′H,7′H-spiro[pyrrolidine-3,6′-[2,7]methanopyrido[1,2-a][1,4]diazonine]-10′-carboxamide] | ≥ 50 µM | 8.12 | 8.47 | 8.72 | – | – |
| C[C@H]1CC[C@@]2(CC(=O)N(C)C2)[C@H]2CN1C(=O)c1c(O)c(=O)c(C(=O)NCc3c(F)cc(F)cc3F)cn12 [Example 62, (3S,3′S,7′S)-12′-hydroxy-1,3′-dimethyl-1′,5,11′-trioxo-N-(2,4,6-trifluorobenzyl)-1′,4′,5′,11′-tetrahydro-3′H,7′H-spiro[pyrrolidine-3,6′-[2,7]methanopyrido[1,2-a][1,4]diazonine]-10′-carboxamide] | ≥ 50 µM | 7.51 | 7.87 | 8.11 | – | – |
| CCN1C[C@@]2(CC[C@H](C)N3C[C@H]2n2cc(C(=O)NCc4c(F)cc(F)cc4F)c(=O)c(O)c2C3=O)OC1=O [Example 63, (3′S,5R,7′R)-3-ethyl-12′-hydroxy-3′-methyl-1′,2,11′-trioxo-N-(2,4,6-trifluorobenzyl)-1′,4′,5′,11′-tetrahydro-3′H,7′H-spiro[oxazolidine-5,6′-[2,7]methanopyrido[1,2-a][1,4]diazonine]-10′-carboxamide] | ≥ 50 µM | 7.34 | 7.81 | 7.95 | – | – |
| COC1=NO[C@@]2(CC[C@H](C)N3C[C@H]2n2cc(C(=O)NCc4ncc(F)c(Cl)c4F)c(=O)c(O)c2C3=O)C1 [Example 64, (3′S,5S,7′R)—N-((4-chloro-3,5-difluoropyridin-2-yl)methyl)-12′-hydroxy-3-methoxy-3′-methyl-1′,11′-dioxo-1′,4′,5′,11′-tetrahydro-3′H,4H,7′H-spiro[isoxazole-5,6′-[2,7]methanopyrido[1,2-a][1,4]diazonine]-10′-carboxamide] | 22.9 µM | – | 6.52 | 9.22 | – | 8.54 |
| COC1=NO[C@@]2(CC[C@H](C)N3C[C@H]2n2cc(C(=O)NCc4cc(F)c(F)cc4F)c(=O)c(O)c2C3=O)C1 [Example 65, (3′S,5S,7′R)-12′-hydroxy-3-methoxy-3′-methyl-1′,11′-dioxo-N-(2,4,5-trifluorobenzyl)-1′,4′,5′,11′-tetrahydro-3′H,4H,7′H-spiro[isoxazole-5,6′-[2,7]methanopyrido[1,2-a][1,4]diazonine]-10′-carboxamide] | 26.3 µM | 8.80 | 6.97 | 9.22 | – | – |
| C[C@H]1CC[C@]2(CC(CF)=NO2)[C@H]2CN1C(=O)c1c(O)c(=O)c(C(=O)NCc3ncc(F)c(Cl)c3F)cn12 [Example 66, (3′S,5S,7′R)—N-((4-chloro-3,5-difluoropyridin-2-yl)methyl)-3-(fluoromethyl)-12′-hydroxy-3′-methyl-1′,11′-dioxo-1′,4′,5′,11′-tetrahydro-3′H,4H,7′H-spiro[isoxazole-5,6′-[2,7]methanopyrido[1,2-a][1,4]diazonine]-10′-carboxamide] | 30.1 µM | 8.41 | 6.25 | 9.10 | – | – |
| CCC1=NO[C@@]2(CC[C@H](C)N3C[C@H]2n2cc(C(=O)NCc4c(F)cc(F)cc4F)c(=O)c(O)c2C3=O)C1 [Example 67, (3′S,5S,7′R)-3-ethyl-12′-hydroxy-3′-methyl-1′,11′-dioxo-N-(2,4,6-trifluorobenzyl)-1′,4′,5′,11′-tetrahydro-3′H,4H,7′H-spiro[isoxazole-5,6′-[2,7]methanopyrido[1,2-a][1,4]diazonine]-10′-carboxamide] | 20 µM | 8.89 | 6.72 | 9.52 | – | – |
| CCCC1=NO[C@@]2(CC[C@H](C)N3C[C@H]2n2cc(C(=O)NCc4c(F)cc(F)cc4F)c(=O)c(O)c2C3=O)C1 [Example 68, (3′S,5S,7′R)-12′-hydroxy-3′-methyl-1′,11′-dioxo-3-propyl-N-(2,4,6-trifluorobenzyl)-1′,4′,5′,11′-tetrahydro-3′H,4H,7′H-spiro[isoxazole-5,6′-[2,7]methanopyrido[1,2-a][1,4]diazonine]-10′-carboxamide] | 15.7 µM | 8.92 | 7.07 | 9.52 | – | – |
| C[C@H]1CC[C@]2(CC(CCF)=NO2)[C@H]2CN1C(=O)c1c(O)c(=O)c(C(=O)NCc3c(F)cc(F)cc3F)cn12 [Example 69, (3′S,5S,7′R)-3-(2-fluoroethyl)-12′-hydroxy-3′-methyl-1′,11′-dioxo-N-(2,4,6-trifluorobenzyl)-1′,4′,5′,11′-tetrahydro-3′H,4H,7′H-spiro[isoxazole-5,6′-[2,7]methanopyrido[1,2-a][1,4]diazonine]-10′-carboxamide] | 26.3 µM | 8.89 | 7.03 | 9.70 | – | – |
| C[C@@H](F)C1=NO[C@@]2(CC[C@H](C)N3C[C@H]2n2cc(C(=O)NCc4c(F)cc(F)cc4F)c(=O)c(O)c2C3=O)C1 [Example 70, (3′S,5S,7′R)-3-((R)-1-fluoroethyl)-12′-hydroxy-3′-methyl-1′,11′-dioxo-N-(2,4,6-trifluorobenzyl)-1′,4′,5′,11′-tetrahydro-3′H,4H,7′H-spiro[isoxazole-5,6′-[2,7]methanopyrido[1,2-a][1,4]diazonine]-10′-carboxamide] | 26.6 µM | 8.89 | 6.75 | 9.40 | – | – |
| C[C@H]1CC[C@]2(CC(C(C)(F)F)=NO2)[C@H]2CN1C(=O)c1c(O)c(=O)c(C(=O)NCc3c(F)cc(F)cc3F)cn12 [Example 71, (3′S,5S,7′R)-3-(1,1-difluoroethyl)-12′-hydroxy-3′-methyl-1′,11′-dioxo-N-(2,4,6-trifluorobenzyl)-1′,4′,5′,11′-tetrahydro-3′H,4H,7′H-spiro[isoxazole-5,6′-[2,7]methanopyrido[1,2-a][1,4]diazonine]-10′-carboxamide] | 32.1 µM | 8.48 | 7.08 | 9.70 | – | – |
| C[C@H]1CC[C@]2(CC=NO2)[C@H]2CN1C(=O)c1c(O)c(=O)c(C(=O)NCc3c(F)cc(F)cc3F)cn12 [Example 72, (3′S,5S,7′R)-12′-hydroxy-3′-methyl-1′,11′-dioxo-N-(2,4,6-trifluorobenzyl)-1′,4′,5′,11′-tetrahydro-3′H,4H,7′H-spiro[isoxazole-5,6′-[2,7]methanopyrido[1,2-a][1,4]diazonine]-10′-carboxamide] | 31.9 µM | 8.92 | 6.97 | 9.52 | – | – |
| C[C@H]1CC[C@]2(CC(C(F)(F)F)=NO2)[C@H]2CN1C(=O)c1c(O)c(=O)c(C(=O)NCc3c(F)cc(F)cc3F)cn12 [Example 73, (3′S,5S,7′R)-12′-hydroxy-3′-methyl-1′,11′-dioxo-N-(2,4,6-trifluorobenzyl)-3-(trifluoromethyl)-1′,4′,5′,11′-tetrahydro-3′H,4H,7′H-spiro[isoxazole-5,6′-[2,7]methanopyrido[1,2-a][1,4]diazonine]-10′-carboxamide] | 31.2 µM | 8.96 | 7.19 | 9.70 | – | – |
| C[C@H]1CC[C@]2(CC(N3CCC3)=NO2)[C@H]2CN1C(=O)c1c(O)c(=O)c(C(=O)NCc3c(F)cc(F)cc3F)cn12 [Example 74, (3′S,5S,7′R)-3-(azetidin-1-yl)-12′-hydroxy-3′-methyl-1′,11′-dioxo-N-(2,4,6-trifluorobenzyl)-1′,4′,5′,11′-tetrahydro-3′H,4H,7′H-spiro[isoxazole-5,6′-[2,7]methanopyrido[1,2-a][1,4]diazonine]-10′-carboxamide] | 22.3 µM | – | 8.31 | 9.40 | – | 8.68 |
